Assay results published in patent US20170138931A9, “METHOD FOR DIAGNOSIS OF INFLAMMATORY DISEASES USING CALGRANULIN C” (WESTFAELISCHE WILHELMS-UNIVERSITAET MUENSTER, priority 2002, published 2017).
Marks after values point to notes of the source that are not given here.

Assays:
JRA patients = details: Ravelli et al., 1995; cited from earlier work
[1] = test system: CALGRANULIN C expressed in synovial tissue; assay: Immunohistochemical analysis of CALGRANULIN C in synovial tissue of psoriatic arthritis patients before and after MTX treatment; type: in vivo, human; details: for number of CALGRANULIN C-positive cells per field in synovial membrane, mean score of 10 fields: after MTX treatment, 400-fold magnification
Experimental: To confirm local expression of CALGRANULIN C at sites of inflammation we performed immunohistochemical studies. Synovial biopsies were performed in 4 patients with psoriatic arthritis before and after MTX-therapy. In addition, biopsies were obtained from 5 patients with psoriatic arthritis not receiving MTX, 2 patients with rheumatoid arthritis, and 2 patients with seronegative arthritis. Two biopsies of patients without synovial inflammation served as negative controls. Cryo-fixed and paraffin-embedded sections were prepared as commonly known in the art. Rabbit anti-human CALGRANULIN C antibody was used to detect CALGRANULIN C expression. Mouse-anti-human CD15, a granulocyte-associated antigen, was used to detect granulocytes in infiltrates. Mouse-anti human CD163 antibody (clone RM3/1, detecting a macrophage-specific scavenger receptor) was employed to characterize macrophages in infiltrates. Species matching control antibodies of irrelevant specificity were used as negative controls. Finally the sections were counterstained with Mayer's haematoxylin. Secondary antibodies and substrates for colour reactions were used as described before. For double-labelling experiments, anti-CALGRANULIN C antibody was followed by anti-CD15 antibody. We used affinity-purified goat-anti-mouse or goat-anti-rabbit secondary antibodies conjugated with either Texas Red or FITC (Dianova, Hamburg, Germany). Fluorescence was analysed using a Zeiss Axioskop connected to an Axiocam camera supply with Axiovision 3.0 for windows (Zeiss, Göttingen, Germany). No cross-reactivity or spillover was detected in control experiments after omitting specific antibodies or replacing them by isotype-matched control antibodies of irrelevant specificity.
We analysed the effects of MTX treatment on CALGRANULIN C expression in serum of 14 patients with psoriatic arthritis and in synovial membranes of 4 patients. Before treatment, extensive expression of CALGRANULIN C was found in synovial tissue of psoriatic arthritis patients before MTX treatment (cf. FIG. 7G), as described above predominantly in the sub-lining layer and perivascular.

[2] = test system: patients with psoriatic arthritis; assay: Disease activity in patients with psoriatic arthritis after initiation of MTX treatment; type: in vivo, human
Experimental: We investigated 42 patients with chronic inflammatory arthritis. CALGRANULIN C concentrations were analysed in serum and synovial fluid using a sandwich-ELISA as described above. Serum levels were determined from 14 patients (9 male, 5 female; mean age 40 years; range 21-64) suffering from psoriasis arthritis (mean disease duration 14.6±8.6 months), who where treated with the anti-inflammatory drug MTX (mean dose 12.9±4.8 mg). No other medication apart from non-steroidal anti-inflammatory drugs (NSAIDs) were taken. Serum was obtained before and after treatment (mean follow up interval 6.4±1.3 months). In addition, paired serum and synovial fluid samples were available from 28 patients who underwent arthroscopy (8 patients with psoriatic arthritis, 9 patients with rheumatoid arthritis, 11 patients with seronegative arthritis). All patients were examined by the same physician. Clinical status of patients was documented by recording early morning stiffness, pain score, Ritchie articular index (RI) (Ritchie et al., 1968, QJ Med 37: 393-406) and number of swollen joint count (SJC). […] Patients with seronegative arthritis were in between these groups. In addition to the clinical status, CRP, ESR, anti nuclear antibodies (ANA), and rheumatoid factor (RF) were documented.
Response to therapy was paralleled by a marked decrease of CALGRANULIN C serum levels after MTX treatment (mean 240 ng/ml prior versus 100 ng/ml after MTX; cf. FIG. 8). CALGRANULIN C levels correlated well with improving EMS, pain score, RI and SJC.

[3] = test system: CALGRANULIN C serum levels; assay: Serum CALGRANULIN C by sandwich ELISA in psoriatic arthritis patients treated with MTX; type: in vivo, human; details: 14 psoriatic arthritis patients, after MTX; 240 ng/ml prior
Experimental: (§1) Concentrations of CALGRANULIN C in the serum of patients were determined by a double sandwich enzyme linked immunosorbent assay (ELISA) system. Flat-bottom 96-well microtiter plates (Maxisorp; Nunc, Roskilde, Denmark) were coated at 50 μl/well with 10 ng/well of anti-CALGRANULIN C in 0.1 M sodium carbonate buffer, pH 9.6; incubated for 16 h at 4° C.; washed three times with phosphate buffer saline and 0.1% Tween 20, pH 7.4 (wash buffer); and blocked with wash buffer containing 0.25% bovine serum albumin (block buffer) for 1 h at 37° C. Plates were washed once with wash buffer and 50 μl of samples with varying dilutions in block buffer were added for 1 h at room temperature. […] Absorbency at 405 nm was measured with ELISA-reader (MRX microplate reader, Dynatech Laboratories, St Peter Port, Guernsey, UK).
We investigated 42 patients with chronic inflammatory arthritis. CALGRANULIN C concentrations were analysed in serum and synovial fluid using a sandwich-ELISA as described above. Serum levels were determined from 14 patients (9 male, 5 female; mean age 40 years; range 21-64) suffering from psoriasis arthritis (mean disease duration 14.6±8.6 months), who where treated with the anti-inflammatory drug MTX (mean dose 12.9±4.8 mg). […]
We analysed the effects of MTX treatment on CALGRANULIN C expression in serum of 14 patients with psoriatic arthritis and in synovial membranes of 4 patients. […]

[4] = test system: CALGRANULIN C serum levels; assay: CALGRANULIN C serum levels in Crohn's disease patients treated with infliximab; type: in vivo, human; details: 3 Crohn's disease patients; before, 2 weeks and 4 weeks after infliximab
Experimental: FIG. 11: CALGRANULIN C serum levels in patients with Crohn's disease due to infliximab treatment. Individual courses of CALGRANULIN C and CDAI in 3 patients before, 2 weeks, and 4 weeks after treatment with infliximab (a-c).
as §1, with “temperature. The ELISA was calibrated with purified CALGRANULIN C in concentrations ranging from 0.016 to 125 ng/ml.” for “temperature.”
Crohn's disease patients (n=40), ulcerative colitis patients (n=34) and healthy controls (n=30) were investigated: CALGRANULIN C protein serum levels were measured as described above using ELISA. In parallel, CRP and ESR were determined. […]

[5] = test system: Human mixed donor neutrophils; assay: CALGRANULIN C secretion by neutrophils stimulated with TNF alpha in vitro; type: cell-based
Experimental: Human mixed donor neutrophils were isolated from buffy coats (German red cross, Munster, Germany) as described before (Vogl et al., 1999, J Biol Chem 274: 25291-25296). Briefly, centrifugation through Ficoll-Hypague (Biocoll, Biochrom, Berlin, Germany) was performed to separate neutrophils from mononuclear cells and platelets. Erythrocytes were separated by dextran sedimentation. The remaining cells were washed twice in PBS. Purity of cells was above 95%, as determined by morphological analysis of Trypan-blue stained cells. Neutrophils were resuspended at a final concentration of 1×10^7 cells/ml in serum free RPMI medium (Biochrom, Berlin, Germany) supplemented with 1% glutamine, 1% non-essential amino acids, and 1% penicillin/streptomycin. […] Stimulated and non-stimulated cells were incubated for 15 or 30 minutes at 37° C., respectively. Finally, neutrophils were pelleted at 500×g for 5 minutes at 4° C. and the supernatant was saved for analyses of CALGRANULIN C with sandwich-ELISA. Cell lysis was assessed by analysing activity of lactate dehydrogenase (LDH) using its capacity to convert NADH to NAD^+ and measuring the decrease of absorbency of NADH at 340 nm. Protease inhibitors were added to prevent proteolytic degradation.

[6] = Stability of CALGRANULIN C protein; type: physicochemical; details: at room temperature or after multiple thawing and freezing cycles
[7] = test system: interaction of CALGRANULIN C with RAGE; details: blocking the CALGRANULIN C-RAGE interaction; Hofmann et al. 1999, Schmidt et al. 2001; cited from earlier work

Molecule: CN(Cc1cnc2nc(N)nc(N)c2n1)c1ccc(C(=O)N[C@@H](CCC(=O)O)C(=O)O)cc1 [MTX, methotrexat]
- JRA patients who relapse after withdrawal of treatment (JRA patients): about 50%
- number of CALGRANULIN C-positive cells per field in synovial membrane, mean score of 10 fields ([1]; Patient 1, psoriatic arthritis, before MTX 23): 3
- number of CALGRANULIN C-positive cells per field in synovial membrane, mean score of 10 fields ([1]; Patient 2, psoriatic arthritis, before MTX 12): <1
- number of CALGRANULIN C-positive cells per field in synovial membrane, mean score of 10 fields ([1]; Patient 3, psoriatic arthritis, before MTX 17): <1
- number of CALGRANULIN C-positive cells per field in synovial membrane, mean score of 10 fields ([1]; Patient 4, psoriatic arthritis, before MTX 21): <1
- CALGRANULIN C expression in synovial biopsies ([1]; psoriatic arthritis patients after effective MTX treatment, extensive expression before): almost undetectable
- CRP ([2]; before MTX 4.2, p < 0.05): 2.5* mg/dl
- Pain ([2]; before MTX 5.3, p < 0.05): 3.2* points
- RI (Ritchie articular index) ([2]; before MTX 6.3, p < 0.01): 1.9** points
- SJC (swollen joint count) ([2]; before MTX 9.6, p < 0.01): 3.3** No.
- ESR ([2]; before MTX 28, p < 0.05): 12* mm/h
- EMS (early morning stiffness) ([2]; before MTX 76, p < 0.01): 25** min
- mean CALGRANULIN C serum level [3]: 100 ng/mL

Molecule: infliximab: TNF blocking agents such as anti-TNF antibodies, e.g. infliximab
- CALGRANULIN C serum levels after treatment [4]: decreased rapidly

Molecule: TNF alpha
- CALGRANULIN C secretion into supernatant ([5]; TNF alpha 2 or 5 ng/ml, 15 or 30 minutes at 37° C., unstimulated cells between 5 and 10 ng/ml): time- and dose-dependent increase
- viability and cell lysis tested by LDH activity ([5]; stimulated vs non-stimulated neutrophils): no differences

B1: CALGRANULIN C: small protein of 92 amino acids which belongs to the family of calcium-binding S100 proteins; SEQ ID NO:2 (protein)
chain: MTKLEEHLEGIVNIFHQYSVRKGHFDTLSKGELKQLLTKELANTIKNIKDKAVIDEIFQGLDANQDEQVDFQEFISLVAIALKAAHYHTHKE
modifications: homo sapiens
- stability of the protein [6]: extremely stable

B2: sRAGE: soluble RAGE, receptor for advanced glycation end products, used as blocking agent in mouse models (protein, UniProt Q62151 23-340, looked up)
extracellular domain: GQNITARIGEPLVLSCKGAPKKPPQQLEWKLNTGRTEAWKVLSPQGGPWDSVARILPNGSLLLPATGIVDEGTFRCRATNRRGKEVKSNYRVRVYQIPGKPEIVDPASELTASVPNKVGTCVSEGSYPAGTLSWHLDGKLLIPDGKETLVKEETRRHPETGLFTLRSELTVIPTQGGTHPTFSCSFSLGLPRRRPLNTAPIQLRVREPGPPEGIQLLVEPEGGIVAPGGTVTLTCAISAQPPPQVHWIKDGAPLPLAPSPVLLLPEVGHEDEGTYSCVATHPSHGPQESPPVSIRVTETGDEGPAEGSVGESGLGTLA
modifications: extracellular domain
- effect in mouse models of inflammation including arthritis [7]: clear anti-inflammatory effects
